The record followed here is PubChem BioAssay AID248 (DTP/NCI, 2004).

The experiment has as its system L1210 leukemia ip in BDF1 mice, survival T/C. Kind of experiment: NCI In Vivo Anticancer Drug Screen. Data for tumor model L1210 Leukemia (intraperitoneal) in B6D2F1 (BDF1) mice. The following applies: endpoint: mean survival time, higher = longer survival. In a few lines: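 Tumor cells were implanted, animals were treated, and survival was followed. The result divides the treated measurement by the vehicle-control measurement.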

The mark [1] stands for this setting: dose: 50.0 mg/kg/injection, schedule: Q01DX001 (ip), vehicle: saline.
The mark [2] stands for this setting: dose: 100.0 mg/kg/injection, schedule: Q01DX001 (ip), vehicle: saline.
Setting [3] is: dose: 200.0 mg/kg/injection, schedule: Q01DX001 (ip), vehicle: saline.
Where [4] appears, read: dose: 400.0 mg/kg/injection, schedule: Q01DX001 (ip), vehicle: saline.
Where [5] appears, read: dose: 50.0 mg/kg/injection, schedule: Q01DX009 (ip), vehicle: Klucel (hydroxypropylcellulose) (HPC).
The mark [6] stands for this setting: dose: 100.0 mg/kg/injection, schedule: Q01DX009 (ip), vehicle: Klucel (hydroxypropylcellulose) (HPC).
[7] abbreviates: dose: 200.0 mg/kg/injection, schedule: Q01DX009 (ip), vehicle: Klucel (hydroxypropylcellulose) (HPC).
[8] abbreviates: dose: 100.0 mg/kg/injection, schedule: Q04DX003 (ip), vehicle: Klucel (hydroxypropylcellulose) (HPC).
[9] abbreviates: dose: 200.0 mg/kg/injection, schedule: Q04DX003 (ip), vehicle: Klucel (hydroxypropylcellulose) (HPC).
Where [10] appears, read: dose: 400.0 mg/kg/injection, schedule: Q01DX009 (ip), vehicle: Klucel (hydroxypropylcellulose) (HPC).
[11] abbreviates: dose: 400.0 mg/kg/injection, schedule: Q04DX003 (ip), vehicle: Klucel (hydroxypropylcellulose) (HPC).
Setting [12] is: dose: 100.0 mg/kg/injection, schedule: Q01DX001 (ip), vehicle: Klucel (hydroxypropylcellulose) (HPC).
Setting [13] is: dose: 25.0 mg/kg/injection, schedule: Q04DX002 (ip), vehicle: Klucel (hydroxypropylcellulose) (HPC).
Where [14] appears, read: dose: 50.0 mg/kg/injection, schedule: Q04DX002 (ip), vehicle: Klucel (hydroxypropylcellulose) (HPC).
The mark [15] stands for this setting: dose: 100.0 mg/kg/injection, schedule: Q04DX002 (ip), vehicle: Klucel (hydroxypropylcellulose) (HPC).
[16] abbreviates: dose: 100.0 mg/kg/injection, schedule: Q01DX001 (ip), vehicle: carboxymethylcellulose (CMC).
The mark [17] stands for this setting: dose: 200.0 mg/kg/injection, schedule: Q01DX001 (ip), vehicle: carboxymethylcellulose (CMC).
Where [18] appears, read: dose: 100.0 mg/kg/injection, schedule: Q04DX003 (ip), vehicle: saline with Tween-80.

Several values for one entry are separate records, joined by “and”; a condition that tells them apart may be missing. Equal entries are not always repeated. Inconclusive results and toxic doses are left out.

As for `CC(=O)OCC1OC(n2cnc([N+](=O)[O-])c2Br)C(OC(C)=O)C1OC(C)=O` (stereo unspecified), the T/C by setting is: under setting [1], 98 % of control; under setting [2], 98 % of control; under setting [3], 102 % of control; under setting [4], 102 % of control.
As for `Nc1cc2ccccc2c(O)c1O`, the T/C is, setting by setting: (dose: 100.0 mg/kg/injection, schedule: Q04DX003 (ip), vehicle: saline sonified) 93 % of control; (dose: 200.0 mg/kg/injection, schedule: Q04DX003 (ip), vehicle: saline sonified) 96 % of control; (dose: 400.0 mg/kg/injection, schedule: Q04DX003 (ip), vehicle: saline sonified) 90 % of control.
Consider `NNc1nc(Cl)nc(C(Cl)(Cl)Cl)c1Cl` (tested in a mixture with another compound), for which the T/C under setting [5] is 87 % of control, the T/C under setting [6] is 87 % of control and the T/C under setting [7] is 89 % of control.
As to `CCOC(=O)N1Cc2cc3ccccc3nc2C1CC(=O)O` (stereo unspecified), the T/C is 104 % of control under setting [6]; 105 % of control under setting [8]; 98 % of control under setting [7]; 88 % of control under setting [9]; 102 % of control under setting [10]; 96 % of control under setting [11].
In the case of `COc1ccc(Cl)cc1NC(=O)Nc1ccc(F)c([N+](=O)[O-])c1`, the T/C was 106 % of control under setting [6], 104 % of control under setting [7] and 102 % of control under setting [10].
Regarding `CSC(C#N)S(C)(=O)=O` (stereo unspecified), the T/C reads like this: (dose: 25.0 mg/kg/injection, schedule: Q01DX001 (ip), vehicle: Klucel (hydroxypropylcellulose) (HPC)) 109 % of control; (dose: 50.0 mg/kg/injection, schedule: Q01DX001 (ip), vehicle: Klucel (hydroxypropylcellulose) (HPC)) 100 % of control; under setting [12], 103 % of control and 108 % of control.
Turning to `CCNC(=O)C1C(c2ccccc2)C1c1ccccc1` (stereo unspecified), the T/C is, setting by setting: under setting [13], 97 % of control; under setting [14], 102 % of control; under setting [15], 102 % of control.
On to `CC1CCN(S(=O)(=O)c2ccc(Cl)cc2)CC1`, for which the T/C under setting [6] is 102 % of control, the T/C under setting [7] was 97 % of control and the T/C under setting [10] was 97 % of control.
For `CC(=O)OCC1OC(n2c(=S)[nH]c3c(N)ncnc32)C(OC(C)=O)C1OC(C)=O` (stereo unspecified), the T/C reads like this: under setting [1], 98 % of control; under setting [2], 98 % of control; under setting [3], 95 % of control; under setting [4], 98 % of control.
As to `CC(C)(C)N1CC(C(=O)O)C1`, the T/C runs as follows: under setting [2], 97 % of control; under setting [3], 103 % of control; under setting [4], 97 % of control.
In the case of `CCCCCCCCCCCCCCC(S(=O)(=O)CC)S(=O)(=O)CC`, the T/C under setting [8] was 95 % of control, the T/C under setting [9] was 100 % of control and the T/C under setting [11] was 90 % of control.
For the compound `O=[N+]([O-])C=C([SH2+])[SH2+].O=[N+]([O-])C=C([SH2+])[SH2+].[Co+3].c1ccc(C[P+](c2ccccc2)(c2ccccc2)c2ccccc2)cc1`, the T/C (dose: 75.0 mg/kg/injection, schedule: Q04DX003 (ip), vehicle: saline) was 93 % of control and the T/C (dose: 150.0 mg/kg/injection, schedule: Q04DX003 (ip), vehicle: saline) was 93 % of control.
As for `O=NN(CCCl)C(=O)CCCCC(=O)N(CCCl)N=O`, the T/C by setting is: (dose: 25.0 mg/kg/injection, schedule: Q01DX001 (ip), vehicle: carboxymethylcellulose (CMC)) 154 % of control; (dose: 50.0 mg/kg/injection, schedule: Q01DX001 (ip), vehicle: carboxymethylcellulose (CMC)) 160 % of control; under setting [12], 75 % of control; under setting [16], 165 % of control; (dose: 200.0 mg/kg/injection, schedule: Q01DX001 (ip), vehicle: Klucel (hydroxypropylcellulose) (HPC)) 67 % of control; under setting [17], 122 % of control.
In the case of `CN(Cc1ccccc1)c1ccc2nc(N)nc(N)c2c1`, the T/C runs as follows: (dose: 25.0 mg/kg/injection, schedule: Q04DX003 (ip), vehicle: saline with Tween-80) 105 % of control; (dose: 50.0 mg/kg/injection, schedule: Q04DX003 (ip), vehicle: saline with Tween-80) 98 % of control; under setting [18], 108 % of control.
As to `Cn1ncc2c(N)ncnc21`, the T/C is, setting by setting: (dose: 6.0 mg/kg/injection, schedule: Q01DX015 (ip), vehicle: carboxymethylcellulose (CMC)) 108 % of control; (dose: 12.0 mg/kg/injection, schedule: Q01DX015 (ip), vehicle: carboxymethylcellulose (CMC)) 101 % of control; (dose: 12.5 mg/kg/injection, schedule: Q01DX009 (ip), vehicle: Klucel (hydroxypropylcellulose) (HPC)) 102 % of control; (dose: 25.0 mg/kg/injection, schedule: Q01DX009 (ip), vehicle: Klucel (hydroxypropylcellulose) (HPC)) 107 % of control; (dose: 25.0 mg/kg/injection, schedule: Q01DX015 (ip), vehicle: carboxymethylcellulose (CMC)) 108 % of control; under setting [5], 91 % of control. In addition, the T/C reads like this: (dose: 50.0 mg/kg/injection, schedule: Q01DX015 (ip), vehicle: carboxymethylcellulose (CMC)) 101 % of control; under setting [16], 103 % of control; under setting [17], 98 % of control; (dose: 400.0 mg/kg/injection, schedule: Q01DX001 (ip), vehicle: carboxymethylcellulose (CMC)) 106 % of control.
For `COc1cc2c(cc1OC)Cc1cc(OC)c(OC)cc1Cc1cc(OC)c(OC)cc1C2`, the T/C is 92 % of control (dose: 100.0 mg/kg/injection, schedule: Q04DX003 (ip), vehicle: saline); 96 % of control (dose: 200.0 mg/kg/injection, schedule: Q04DX003 (ip), vehicle: saline); 97 % of control (dose: 400.0 mg/kg/injection, schedule: Q04DX003 (ip), vehicle: saline).
In the case of `CCCCCCCCCCCCCCCCCCCCCCCCCCCCCCCS`, the T/C by setting is: (dose: 100.0 mg/kg/injection, schedule: Q01DX001 (ip), vehicle: other) 95 % of control; (dose: 200.0 mg/kg/injection, schedule: Q01DX001 (ip), vehicle: other) 103 % of control.
In the case of `COc1ccc(C2CCc3cc4c(cc3/C2=N/O)OCO4)cc1OC` (stereo unspecified), the T/C (dose: 100.0 mg/kg/injection, schedule: Q01DX009 (ip), vehicle: saline with Tween-80) was 98 % of control; the T/C under setting [18] was 90 % of control; the T/C (dose: 200.0 mg/kg/injection, schedule: Q01DX009 (ip), vehicle: saline with Tween-80) was 92 % of control; the T/C (dose: 200.0 mg/kg/injection, schedule: Q04DX003 (ip), vehicle: saline with Tween-80) is 90 % of control; the T/C (dose: 400.0 mg/kg/injection, schedule: Q01DX009 (ip), vehicle: saline with Tween-80) is 105 % of control; the T/C (dose: 400.0 mg/kg/injection, schedule: Q04DX003 (ip), vehicle: saline with Tween-80) was 91 % of control.
`CCSN1C(=O)c2ccccc2C1=O`: the T/C under setting [13] was 92 % of control, the T/C under setting [14] is 100 % of control and the T/C under setting [15] is 92 % of control.
`O=C(C(=O)c1ccco1)c1ccccc1`: the T/C runs as follows: (dose: 75.0 mg/kg/injection, schedule: Q01DX001 (ip), vehicle: carboxymethylcellulose (CMC)) 100 % of control; (dose: 150.0 mg/kg/injection, schedule: Q01DX001 (ip), vehicle: carboxymethylcellulose (CMC)) 102 % of control; (dose: 300.0 mg/kg/injection, schedule: Q01DX001 (ip), vehicle: carboxymethylcellulose (CMC)) 97 % of control.
